{"source": "patent US20100317711A1", "about": "“STEM-LIKE CELLS AND METHOD FOR REPROGRAMMING ADULT MAMMALIAN SOMATIC CELLS” (GLIAMED, INC., priority 2009, published 2010)", "key": {"[1]": {"test_system": "normal human dermal fibroblasts (NHDF)", "assay": "Oct4 immunostaining of normal human dermal fibroblasts cultured with GM1485", "assay_type": "cell-based", "conditions": "GM1485 100 μM in serum free medium, 72 hours, versus vehicle", "protocol": "The fibroblasts were harvested from a skin sample was taken from the face of a human cadaver. The skin sample was cut into small fragments and digested with dispase overnight (4° C.). Thereafter the epidermis was separated from the dermis. The dermis fragments were further digested with collagenase for approximately 1 h at 37° C., and then diluted with culture medium and filtered to obtain a suspension of dermal cells. The dermal cells were next purified via magnetic bead separation to yield normal human dermal fibroblasts (“NHDFs”). Second passage normal human dermal fibroblasts (NHDF) were seeded onto poly-D-lysine coated coverslips within wells of 24-well plates, at a density of 4,000 cells/well and cultured overnight in NHDF growth medium from PromoCell GmbH (NHDF GM) consisting of: The NHDF GM was aspirated, the wells were rinsed twice with Hank's balanced salt solution (HBSS), and 400 μL of serum free medium (SFM) supplemented with GM1485 at a final concentration of 100 μM or the vehicle the drug vehicle (SFM). […]"}, "human fibroblasts": {"test_system": "human fibroblasts", "assay": "Reprogramming of GM1485-treated human fibroblasts under neural inducing conditions (GFAP, TuJ1 staining)", "assay_type": "cell-based", "conditions": "GM1485 100 μM, then FGF2 72 hours and rhEGF 7 days", "protocol": "On day one of this experiment, the human fibroblasts, were plated, grown overnight as described above and then changed to DMEM supplemented with 10% heat inactivated FCS, 1% DMEM non-essential amino acids (Gibco), penicillin/streptomycin/glutamine (Gemini Bioproducts) and amphotericin B with or without GM1485 for 1 day, and reduced the concentration of serum over an 16 h period until the serum was absent, however the concentration of GM1485 was maintained at 100 μM throughout. The cells were maintained in SFM+/−GM1485 and 10 ng/mL FGF2 for 72 hours. On day 4 of the experiment, the culture environment was changed to 0.5 mL of a SFM without FGF2, but with rhEGF at 20 ng/ml. The cells were maintained in SFM supplemented with 20 ng/ml rhEGF for an additional 7 days. On the 11th day all the cells were fixed by aspirating the medium from the wells and replacing it with 0.5 mL/well of 4% paraformaldehyde in phosphate buffered saline (“PBS”) for 15 minutes at room temperature. Thereafter, the cells were briefly rinsed with PBS at room temperature, then washed with PBS at room temperature in three cycles of 5 minutes each. […] FIG. 2 is comprised of a set of 4 fluorescence photomicrographs, shown in inverted mode to allow full visualization in grayscale. […]"}, "[2]": {"test_system": "murine fibroblasts, 3T3 cells", "assay": "Oct4 immunostaining of murine fibroblasts (3T3 cells) cultured with GM1485", "assay_type": "cell-based", "conditions": "GM1485 versus vehicle, no neural induction", "protocol": "In another experiment, the murine fibroblasts, 3T3 cells were cultured in accordance with the protocol described, supra., for Example 1, except that they were not entered into a neural induction environment. Rather, the murine fibroblasts were fixed and stained with rabbit αOct4 antibody. The photomicrographs in FIG. 3 were taken using bright field microscopy using a 20× objective, except the inset, which is a 20× phase contrast photomicrograph of the same microscopic field into which it is set. The arrows point to the corresponding nuclei in the bright field and phase micrographs of the vehicle treated murine fibroblasts. Only the GM1485 treated murine fibroblasts express Oct4."}, "IGF2 expression": {"test_system": "IGF2 expression", "assay": "cDNA array analysis of gene expression after initiating reprogramming with GM1485", "assay_type": "cell-based, human", "conditions": "48 hours after initiating reprogramming, GM1485 versus vehicle treated cells", "protocol": "It has previously been shown that RIL treatment alters gene expression and that the biologic effects of these compounds are dependent upon cell-cell signaling. Included among these changes are alterations in the secretion of soluble factors (Lowry W E et al. 2008, Proc Natl Acad Sci USA 105, 2883-2888). To begin to explore what changes in gene expression might play a role GM1485-mediated iPS induction, RNA for cDNA array analysis was harvested from GM1485 and vehicle treated cells 48 hours after initiating reprogramming with GM1485."}, "[3]": {"test_system": "Adult, facial skin-derived human fibroblasts", "assay": "IGF2 blockade during GM1485-mediated iPS induction and neural re-differentiation of human fibroblasts", "assay_type": "cell-based", "protocol": "To test the role of IGF2 in GM1485-mediated iPS induction, an α-IGF2 blocking antibody was included at the onset of induction and maintained in culture for three days.\nAdult, facial skin-derived human fibroblasts were cultured in the presence of 100 μM GM1485 in chemically defined medium for 72 hours with (b) or without (a) 40 ng/ml mAb IGF2, a neutralizing antibody (Abcam, Inc.). One set of cells was fixed and stained with rabbit αOct4 (a and b). IGF2 signaling is required of the reprogramming from somatic cells to iPS cells. On the chance that the cells maintained plasticity, cells were continued in culture, but they were switched to culture conditions under which ES cells differentiate along a neural pathway. In specific, the cells were rinsed in PBS and cultured with chemically defined medium supplemented with rhFGF2, 10 ng/ml for an additional 72 hours, after which the cells were rinsed in PBS and the culture medium was replaced with chemically defined medium supplemented with rhEGF, 20 ng/ml. After seven days the cells were rinsed in PBS, fixed in 4% paraformaldehyde in PBS, and processed for immunocytochemistry with TuJ1, a mAb that recognizes neuron-specific βIII-Tubulin."}, "human keratinocytes": {"test_system": "human keratinocytes", "assay": "In vitro treatment of human keratinocytes with GM1485 with or without rhIGF2 (Oct4, Sox2)", "assay_type": "cell-based"}, "adult rats": {"test_system": "adult rats", "assay": "Cardiac ischemic injury (left anterior descending artery ligation) in adult rats", "assay_type": "in vivo, rat", "conditions": "5 mg/kg daily intraperitoneal, 30 days after infarction", "protocol": "Adult rats underwent thoracotomy, the heart was isolated, the left anterior descending artery was identified and ligated at its branch point from the left circumflex artery, causing a massive infarction of the left ventricle. The chest was closed, lungs reinflated and the skin closed. The animals began a 30 day regimen of daily intraperitoneal injections of either GM1485 at 5 mg/kg or the saline vehicle in which it was dissolved. On the 30th day after infarction the animals were sacrificed, the hearts harvested, fixed and cryosectioned. […] The histology of the vehicle treated tissue is consistent with an extensive myocardial infarction. […] FIG. 5 is a 2×2 matrix of photomicrographs of cardiac tissue 30 days after infarction and treatment with either vehicle in the top two slides or GM1485 in the bottom two slides. The left upper and lower sections were stained with an αOct4 antiserum and the right upper and lower sections were stained with αSox2 (mAb R&D Systems). Only the GM1485 treated cardiac tissue expresses Oct4 and/or Sox2."}}}
{"compound": "CCC(C)(C)C(=O)C(=O)N1CCC[C@H]1C(=O)O", "note": "[GM1485, (2S)-1-(3,3-dimethyl-1,2-dioxopentyl)-2-pyrrolidinecarboxylic acid]", "values": [{"measurement": "Oct4 expression (anti-OCT 3/4 immunostaining)", "setting": "[1]", "value": "upregulation of Oct4"}, {"measurement": "reprogramming of fibroblasts to neurons or astrocytes (GFAP, TuJ1)", "setting": "human fibroblasts", "value": "acquire the ability to be reprogrammed to an alternative cell fate"}, {"measurement": "Oct4 expression (rabbit αOct4 staining)", "setting": "[2]", "value": "express Oct4"}, {"measurement": "IGF2 expression increase", "setting": "IGF2 expression", "value": 550, "unit": "%"}, {"measurement": "number of genes upregulated by 2 fold or more", "setting": "IGF2 expression", "value": "Over 100"}, {"measurement": "differentiation to neuronal cells (TuJ1, βIII-Tubulin)", "setting": "[3]; 100 μM GM1485 72 hours without IGF2 blockade, then rhFGF2 72 hours, rhEGF seven days", "value": "differentiated to neuronal cells"}, {"measurement": "reprogramming to iPS cells (rabbit αOct4 staining)", "setting": "[3]; 100 μM GM1485, 72 hours, without IGF2 blockade", "value": "reprogrammed"}, {"measurement": "iPS induction", "setting": "human keratinocytes; GM1485 alone, in vitro", "value": "has not previously resulted in iPS induction"}, {"measurement": "Oct4 and Sox2 expression", "setting": "human keratinocytes; GM1485 with rhIGF2 included in cultures", "value": "upregulate Oct4 and Sox2 with the same kinetics as treated fibroblasts"}, {"measurement": "histology of heart tissue (H&E stained section)", "setting": "adult rats; versus saline vehicle", "value": "consistent with normal myocardium"}, {"measurement": "Oct4 and Sox2 expression in cardiac tissue", "setting": "adult rats; versus vehicle", "value": "Oct4 and Sox2 are upregulated"}]}
